Assay results published in patent US11185073B2, “Microbiocidal quinoline (thio)carboxamide derivatives” (SYNGENTA PARTICIPATIONS AG, priority 2017, dated 2021).

How the values were obtained:
Fusarium culmorum [1] = assay: whole plant or invertebrate; format: in vivo; conditions: in Triticum aestivum, read-out: control of Fusarium culmorum
[2] = tested on: Monographella nivalis (Microdochium nivale); assay: Monographella nivalis (Microdochium nivale) / liquid culture (foot rot cereals); format: cell-based; conditions: 96 h, growth inhibition photometrically 4-5 days after application, compared to untreated control
[3] = tested on: Magnaporthe grisea (Pyricularia oryzae); assay: microbe, parasite or virus in culture; format: cell-based; conditions: 72 h, read-out: control of Magnaporthe grisea
[4] = tested on: Gibberella zeae (Fusarium graminearum); assay: whole plant or invertebrate; format: in vivo; conditions: in Triticum aestivum, read-out: control of Gibberella zeae
Fusarium culmorum [5] = assay: microbe, parasite or virus in culture; format: cell-based; conditions: 72 h, read-out: control of Fusarium culmorum
[6] = tested on: Botryotinia fuckeliana (Botrytis cinerea); assay: Botryotinia fuckeliana (Botrytis cinerea) / liquid culture (gray mould); format: cell-based; conditions: 72 h, growth inhibition photometrically 3-4 days after application, compared to untreated control
[7] = tested on: Glomerella lagenarium (Colletotrichum lagenarium); assay: Glomerella lagenarium (Colletotrichum lagenarium) / liquid culture (anthracnose); format: cell-based; conditions: Colletotrichum orbiculare, growth inhibition photometrically 3-4 days after application, compared to untreated control

CC(C)CC(C)(COC1CCC1)NC(=O)c1cnc2c(F)cccc2c1 (stereo not drawn) [E.023, N-[1-(cyclo-butoxymethyl)-1,3-dimethyl-butyl]-8-fluoro-quinoline-3-carboxamide]
≥ 80%: pest or weed control at 200 ppm (Fusarium culmorum [1]) | inhibition of growth at 20 ppm [2] | inhibition of growth at 20 ppm [3] | pest or weed control at 200 ppm [4] | inhibition of growth at 20 ppm (Fusarium culmorum [5]) | inhibition of growth at 20 ppm [6] | inhibition of growth at 20 ppm [7]

CC1(CC(C)(COCc2ccccc2)NC(=O)c2cnc3c(F)cccc3c2)CC1 (stereo not drawn) [E.018, N-[1-(benzyloxy-methyl)-1-methyl-2-(1-methylcyclo-propyl)ethyl]-8-fluoro-quinoline-3-carboxamide]
≥ 80%: inhibition of growth at 20 ppm [2] | inhibition of growth at 20 ppm [3] | inhibition of growth at 20 ppm (Fusarium culmorum [5]) | inhibition of growth at 20 ppm [6]

CC(COC1(C)CCCCC1)(CC(F)(F)F)NC(=O)c1cnc2c(F)cccc2c1 (stereo not drawn) [E.015, 8-fluoro-N-[3,3,3-trifluoro-1-methyl-1-[(1-methylcyclo-hexoxy)methyl]-propyl]quinoline-3-carboxamide]
≥ 80%: inhibition of growth at 20 ppm [3] | inhibition of growth at 20 ppm (Fusarium culmorum [5]) | inhibition of growth at 20 ppm [6] | inhibition of growth at 20 ppm [7]

CC(COC1(C)CCCC1)(CC(F)(F)F)NC(=O)c1cnc2c(F)cccc2c1 (stereo not drawn) [E.010]
≥ 80%: pest or weed control at 200 ppm (Fusarium culmorum [1]) | inhibition of growth at 20 ppm [2] | pest or weed control at 200 ppm [4] | inhibition of growth at 20 ppm (Fusarium culmorum [5]) | inhibition of growth at 20 ppm [6] | inhibition of growth at 20 ppm [7]

CC(C)CC(C)(COC1CCCCC1)NC(=O)c1cnc2c(F)cccc2c1 (stereo not drawn) [E.029, N-[1-(cyclohexoxy-methyl)-1,3-dimethyl-butyl]-8-fluoro-quinoline-3-carboxamide]
≥ 80%: pest or weed control at 200 ppm (Fusarium culmorum [1]) | inhibition of growth at 20 ppm [2] | inhibition of growth at 20 ppm [3] | inhibition of growth at 20 ppm (Fusarium culmorum [5]) | inhibition of growth at 20 ppm [6] | inhibition of growth at 20 ppm [7]

CC(COC1CCCCC1)(CC(F)(F)F)NC(=O)c1cnc2c(F)cccc2c1 (stereo in doubt) [E.017, N-[(1S)-1-(cyclo-hexoxymethyl)-3,3,3-trifluoro-1-methyl-propyl]-8-fluoro-quinoline-3-carboxamide]
≥ 80%: pest or weed control at 200 ppm [4]

CC(COC1CCC1)(CC(F)(F)F)NC(=O)c1cnc2c(F)c(F)ccc2c1 (stereo not drawn) [E.008, N-[1-(cyclo-butoxymethyl)-3,3,3-trifluoro-1-methyl-propyl]-7,8-difluoro-quinoline-3-carboxamide]
≥ 80%: pest or weed control at 200 ppm (Fusarium culmorum [1]) | inhibition of growth at 20 ppm [2] | inhibition of growth at 20 ppm [3] | pest or weed control at 200 ppm [4] | inhibition of growth at 20 ppm (Fusarium culmorum [5]) | inhibition of growth at 20 ppm [6] | inhibition of growth at 20 ppm [7]

CC(COC1CCC1)(CC(F)(F)F)NC(=O)c1cnc2c(F)cccc2c1 (stereo not drawn) [E.021, N-[1-(cyclobutoxy-methyl)-3,3,3-trifluoro-1-methyl-propyl]-8-fluoro-quinoline-3-carboxamide]
≥ 80%: inhibition of growth at 20 ppm [3] | inhibition of growth at 20 ppm (Fusarium culmorum [5]) | inhibition of growth at 20 ppm [6] | inhibition of growth at 20 ppm [7]

CC(C)CC(C)(COC(C)C)NC(=O)c1cnc2c(F)cccc2c1 (stereo not drawn) [E.024, 8-fluoro-N-[1-(iso-propoxymethyl)-1,3-dimethyl-butyl]quinoline-3-carboxamide]
≥ 80%: pest or weed control at 200 ppm (Fusarium culmorum [1]) | inhibition of growth at 20 ppm [3] | pest or weed control at 200 ppm [4] | inhibition of growth at 20 ppm (Fusarium culmorum [5]) | inhibition of growth at 20 ppm [6] | inhibition of growth at 20 ppm [7]

CCCCCCCCC(C)(COC)NC(=O)c1cnc2c(F)cccc2c1 (stereo not drawn) [E.033, 8-fluoro-N-[1-(methoxymethyl)-1-methyl-nonyl]-quinoline-3-carboxamide]
≥ 80%: inhibition of growth at 20 ppm [2] | pest or weed control at 200 ppm [4] | inhibition of growth at 20 ppm (Fusarium culmorum [5]) | inhibition of growth at 20 ppm [6] | inhibition of growth at 20 ppm [7]

C[C@@](COC1CCC1)(CC(F)(F)F)NC(=O)c1cnc2c(F)cccc2c1 [E.013, N-[(1S)-1-(cyclo-butoxymethyl)-3,3,3-trifluoro-1-methyl-propyl]-8-fluoro-quinoline-3-carboxamide]
≥ 80%: pest or weed control at 200 ppm (Fusarium culmorum [1]) | inhibition of growth at 20 ppm [2] | inhibition of growth at 20 ppm (Fusarium culmorum [5]) | inhibition of growth at 20 ppm [6] | inhibition of growth at 20 ppm [7]

CC(COC1CCC1)(CC(F)(F)F)NC(=O)c1cnc2c(F)cccc2c1 (stereo in doubt) [E.014, N-[(1S)-1-(cyclo-butoxymethyl)-3,3,3-trifluoro-1-methyl-propyl]-8-fluoro-quinoline-3-carboxamide]
≥ 80%: pest or weed control at 200 ppm (Fusarium culmorum [1]) | pest or weed control at 200 ppm [4] | inhibition of growth at 20 ppm (Fusarium culmorum [5]) | inhibition of growth at 20 ppm [6] | inhibition of growth at 20 ppm [7]

CC(C)(C)CC(C)(COCC1CC1)NC(=O)c1cnc2c(F)cccc2c1 (stereo not drawn) [E.006, N-[1-(cyclo-propylmethoxy-methyl)-1,3,3-trimethylbutyl]-8-fluoro-quinoline-3-carboxamide]
≥ 80%: pest or weed control at 200 ppm (Fusarium culmorum [1]) | inhibition of growth at 20 ppm [2] | inhibition of growth at 20 ppm [3] | inhibition of growth at 20 ppm (Fusarium culmorum [5]) | inhibition of growth at 20 ppm [6] | inhibition of growth at 20 ppm [7]

CC(C)CC(C)(COC1CCCC1)NC(=O)c1cnc2c(F)cccc2c1 (stereo not drawn) [E.031, N-[1-(cyclopentoxy-methyl)-1,3-dimethyl-butyl]-8-fluoro-quinoline-3-carboxamide]
≥ 80%: pest or weed control at 200 ppm (Fusarium culmorum [1]) | inhibition of growth at 20 ppm [2] | inhibition of growth at 20 ppm [3] | inhibition of growth at 20 ppm (Fusarium culmorum [5]) | inhibition of growth at 20 ppm [6] | inhibition of growth at 20 ppm [7]

Cc1cccc2cc(C(=O)NC(C)(COC3CCC3)CC(F)(F)F)cnc12 (stereo not drawn) [E.011]
≥ 80%: pest or weed control at 200 ppm (Fusarium culmorum [1]) | inhibition of growth at 20 ppm [2] | inhibition of growth at 20 ppm [3] | inhibition of growth at 20 ppm (Fusarium culmorum [5]) | inhibition of growth at 20 ppm [6] | inhibition of growth at 20 ppm [7]

Cc1nc2c(F)cccc2cc1C(=O)NC(C)(COC1CCC1)CC(F)(F)F (stereo not drawn) [E.009, N-[1-(cyclo-butoxymethyl)-3,3,3-trifluoro-1-methyl-propyl]-8-fluoro-2-methyl-qiuinoline-3-carboxamide]
≥ 80%: inhibition of growth at 20 ppm [3] | inhibition of growth at 20 ppm (Fusarium culmorum [5]) | inhibition of growth at 20 ppm [6] | inhibition of growth at 20 ppm [7]

CC(C)CC(C)(COc1ccccc1)NC(=O)c1cnc2c(F)cccc2c1 (stereo not drawn) [E.028, N-[1,3-dimethyl-1-(phenoxymethyl)-butyl]-8-fluoro-quinoline-3-carboxamide]
≥ 80%: pest or weed control at 200 ppm (Fusarium culmorum [1]) | inhibition of growth at 20 ppm [2] | inhibition of growth at 20 ppm (Fusarium culmorum [5]) | inhibition of growth at 20 ppm [6] | inhibition of growth at 20 ppm [7]

CCC(CC)OCC(C)(CC(C)C)NC(=O)c1cnc2c(F)cccc2c1 (stereo not drawn) [E.022, N-[1-(1-ethyl-propoxymethyl)-1,3-dimethyl-butyl]-8-fluoro-quinoline-3-carboxamide]
≥ 80%: pest or weed control at 200 ppm (Fusarium culmorum [1]) | inhibition of growth at 20 ppm [2] | inhibition of growth at 20 ppm [3] | inhibition of growth at 20 ppm (Fusarium culmorum [5]) | inhibition of growth at 20 ppm [6] | inhibition of growth at 20 ppm [7]
